{"source": "patent US12319643B2", "about": "“Ionizable compounds and compositions and uses thereof” (Nitto Denko Corporation, priority 2015, dated 2025)", "key": {"[1]": {"experiment": "pKa (Table 9, lipid formulations for siRNA)", "type": "physicochemical", "conditions": "only or first value of the cell"}, "GFP": {"system": "GFP", "experiment": "EC50 of nanoparticle formulations, GFP siRNA", "type": "cell-based", "conditions": "nanoparticles Ionizable compound/DOPE/Cholesterol/DMPE-PEG 50/28/21/1 mol %", "procedure": "(§1) Example 39: Formulations were Prepared for Encapsulating a Small Interfering Nucleic Acid Agents (siRNA)\n(§2) Lipid nanoparticle formulations were prepared with the following compositions: […]\n(§3) (Ionizable compound/DOPE/Cholesterol/DMPE-PEG) mol % • 50/28/21/1.\nThe formulations were capable of encapsulating the siRNA, and retaining stability in human serum."}, "[2]": {"experiment": "Serum stability of nanoparticle formulations, t(½) in human serum at 37 C", "type": "in vitro ADME", "conditions": "Table 10, nanoparticles Ionizable compound/DOPE/Cholesterol/DMPE-PEG 50/28/21/1 mol %", "procedure": "as §1, §2, §3\nThe formulations were capable of encapsulating the siRNA, and retaining stability in human serum. […]"}, "[3]": {"experiment": "Encapsulation efficiency for siRNA of lipid (nanoparticle) formulations", "type": "physicochemical", "conditions": "Table 8: nanoparticles Ionizable compound/DOPE/DOPC/Cholesterol/DMPE-PEG 50/28/0/21/1, 50/28/0/20/2 or 26/21/21/31/1 mol %", "procedure": "(§4) Example 38: Formulations were Prepared for Encapsulating a Small Interfering Nucleic Acid Agents (siRNA)\nas §2"}, "[4]": {"experiment": "Particle size Z (ave) of siRNA lipid nanoparticle formulations", "type": "physicochemical", "conditions": "Table 8: nanoparticles Ionizable compound/DOPE/DOPC/Cholesterol/DMPE-PEG 50/28/0/21/1, 50/28/0/20/2 or 26/21/21/31/1 mol %", "procedure": "as §4, §2"}}, "data": [{"smiles": "CCCCCCCCCCCCCC(=O)OCCN(CCOC(=O)CCCCCCCCCCCCC)C(=O)CN1C[C@H](O)[C@@H](O)C1", "note": "[Compound A4, ((2-((3S,4S)-3,4-dihydroxypyrrolidin-1-yl)acetyl)azanediyl)bis(ethane-2,1-diyl) ditetradecanoate]", "values": [{"measurement": "pKa", "setting": "[1]", "value": 5.8}]}, {"smiles": "CCCCC/C=C\\C/C=C\\CCCCCCCC(=O)OCCN(CCOC(=O)CCCCCCC/C=C\\C/C=C\\CCCCC)C(=O)CN1C[C@@H](O)[C@H](O)C1", "note": "[Compound A5, ((2-((3R,4R)-3,4-dihydroxypyrrolidin-1-yl)acetyl)azanediyl)bis(ethane-2,1-diyl) (9Z,9′Z,12Z,12′Z)-bis(octadeca-9,12-dienoate)]", "values": [{"measurement": "pKa", "setting": "[1]", "value": 6.1}, {"measurement": "EC50", "setting": "GFP", "value": 6.9, "unit": "nM"}, {"measurement": "t(½) (hr) human serum 37 C.", "setting": "[2]", "value": ">50", "unit": "h"}]}, {"smiles": "CCCCC/C=C\\C/C=C\\CCCCCCCC(=O)OCCN(CCOC(=O)CCCCCCC/C=C\\C/C=C\\CCCCC)C(=O)CN1C[C@@H](O)[C@@H](O)C1", "note": "[Compound A6, ((2-((3S,4R)-3,4-dihydroxypyrrolidin-1-yl)acetyl)azanediyl)bis(ethane-2,1-diyl) (9Z,9′Z,12Z,12′Z)-bis(octadeca-9,12-dienoate)]", "values": [{"measurement": "EE* (%) Encapsulation efficiency for siRNA", "setting": "[3]", "value": 96, "unit": "%"}, {"measurement": "Z (ave) nm", "setting": "[4]", "value": 121, "unit": "nm"}, {"measurement": "pKa", "setting": "[1]", "value": 6.3}, {"measurement": "EC50", "setting": "GFP", "value": 11, "unit": "nM"}, {"measurement": "t(½) (hr) human serum 37 C.", "setting": "[2]", "value": ">50", "unit": "h"}]}, {"smiles": "CCCCC/C=C\\C/C=C\\CCCCCCCC(=O)OCCN(CCOC(=O)CCCCCCC/C=C\\C/C=C\\CCCCC)C(=O)OCCN(C)C", "note": "[Compound A7, (((2-(dimethylamino)ethoxy)carbonyl)azanediyl)bis(ethane-2,1-diyl) (9Z,9′Z,12Z,12′Z)-bis(octadeca-9,12-dienoate)]", "values": [{"measurement": "pKa", "setting": "[1]", "value": 7.6}, {"measurement": "EC50", "setting": "GFP", "value": 35, "unit": "nM"}, {"measurement": "t(½) (hr) human serum 37 C.", "setting": "[2]", "value": ">50", "unit": "h"}]}, {"smiles": "CCCCC/C=C\\C/C=C\\CCCCCCCC(=O)OCCN(CCOC(=O)CCCCCCC/C=C\\C/C=C\\CCCCC)C(=O)OCC[N+](C)(C)C", "note": "[Compound A8, 2-((bis(2-(((9Z,12Z)-octadeca-9,12-dienoyl)oxy)ethyl)carbamoyl)oxy)-N,N,N-trimethylethan-1-aminium]", "values": [{"measurement": "t(½) (hr) human serum 37 C.", "setting": "[2]", "value": ">50", "unit": "h"}]}, {"smiles": "CCCCCCCCCCCCCC(=O)OCCN(CCOC(=O)CCCCCCCCCCCCC)C(=O)CN1CC(CO)C1", "note": "[Compound A9, ((2-(3-(hydroxymethyl)azetidin-1-yl)acetyl)azanediyl)bis(ethane-2,1-diyl) ditetradecanoate]", "values": [{"measurement": "EE* (%) Encapsulation efficiency for siRNA", "setting": "[3]", "value": 95, "unit": "%"}, {"measurement": "Z (ave) nm", "setting": "[4]", "value": 97, "unit": "nm"}, {"measurement": "pKa", "setting": "[1]", "value": 7.4}, {"measurement": "EC50", "setting": "GFP", "value": 31, "unit": "nM"}]}, {"smiles": "CCCCC/C=C\\C/C=C\\CCCCCCCC(=O)OCCN(CCOC(=O)CCCCCCC/C=C\\C/C=C\\CCCCC)C(=O)CN1CCN(CCCO)CC1", "note": "[Compound AA]", "values": [{"measurement": "EE* (%) Encapsulation efficiency for siRNA", "setting": "[3]", "value": 90, "unit": "%"}, {"measurement": "Z (ave) nm", "setting": "[4]", "value": 120, "unit": "nm"}, {"measurement": "pKa", "setting": "[1]", "value": 7.4}, {"measurement": "EC50", "setting": "GFP", "value": 22, "unit": "nM"}]}, {"smiles": "CCCCC/C=C\\C/C=C\\CCCCCCCC(=O)OCCN(CCOC(=O)CCCCCCC/C=C\\C/C=C\\CCCCC)C(=O)CN1CCN(CCO)CC1", "note": "[Compound AB, ((2-(4-(2-hydroxyethyl)piperazin-1-yl)acetyl)azanediyl)bis(ethane-2,1-diyl) (9Z,9′Z,12Z,12′Z)-bis(octadeca-9,12-dienoate)]", "values": [{"measurement": "pKa", "setting": "[1]", "value": 6.9}, {"measurement": "EC50", "setting": "GFP", "value": 7.4, "unit": "nM"}, {"measurement": "t(½) (hr) human serum 37 C.", "setting": "[2]", "value": ">50", "unit": "h"}]}, {"smiles": "CCCCCCCCCCCCCC(=O)OCCN(CCOC(=O)CCCCCCCCCCCCC)C(=O)CCCC(=O)O", "note": "[Compound B8]", "values": [{"measurement": "pKa", "setting": "[1]", "value": 4.3}, {"measurement": "t(½) (hr) human serum 37 C.", "setting": "[2]", "value": ">50", "unit": "h"}]}, {"smiles": "CCCC/C=C\\C/C=C\\CCCCCCCCOC(=O)CC(CC(=O)OCCCCCCCC/C=C\\C/C=C\\CCCCC)NC(=O)C[N+](C)(C)C", "note": "(centres unmarked) [Compound C2, 2-((1-(((9Z,12Z)-heptadeca-9,12-dien-1-yl)oxy)-5-(((9Z,12Z)-octadeca-9,12-dien-1-yl)oxy)-1,5-dioxopentan-3-yl)amino)-N,N,N-trimethyl-2-oxoethan-1-aminium]", "values": [{"measurement": "EE* (%) Encapsulation efficiency for siRNA", "setting": "[3]", "value": 95, "unit": "%"}, {"measurement": "Z (ave) nm", "setting": "[4]", "value": 111, "unit": "nm"}, {"measurement": "EC50", "setting": "GFP", "value": 33, "unit": "nM"}]}, {"smiles": "CCCC/C=C\\C/C=C\\CCCCCCCCOC(=O)CC(CC(=O)OCCCCCCCC/C=C\\C/C=C\\CCCCC)NC(=O)CN(C)C", "note": "(centres unmarked) [Compound C3, 1-((9Z,12Z)-heptadeca-9,12-dien-1-yl) 5-((9Z,12Z)-octadeca-9,12-dien-1-yl) 3-(2-(dimethylamino)acetamido)pentanedioate]", "values": [{"measurement": "pKa", "setting": "[1]", "value": 6.9}]}, {"smiles": "CCCCC/C=C\\C/C=C\\CCCCCCCCOC(=O)[C@H](CNC(=O)C[N+](C)(C)C)NC(=O)CCCCCCC/C=C\\C/C=C\\CCCCC", "note": "[Compound C24, N,N,N-trimethyl-2-(((S)-3-(((9Z,12Z)-octadeca-9,12-dien-1-yl)oxy)-2-((9Z,12Z)-octadeca-9,12-dienamido)-3-oxopropyl)amino)-2-oxoethan-1l-aminium]", "values": [{"measurement": "EE* (%) Encapsulation efficiency for siRNA", "setting": "[3]", "value": 98, "unit": "%"}, {"measurement": "Z (ave) nm", "setting": "[4]", "value": 127, "unit": "nm"}, {"measurement": "EC50", "setting": "GFP", "value": 92, "unit": "nM"}, {"measurement": "t(½) (hr) human serum 37 C.", "setting": "[2]", "value": ">50", "unit": "h"}]}, {"smiles": "CCCCC/C=C\\C/C=C\\CCCCCCCCOC(=O)[C@H](CNC(=O)CN(C)C)NC(=O)CCCCCCC/C=C\\C/C=C\\CCCCC", "note": "[Compound C25, (9Z,12Z)-octadeca-9,12-dien-1-yl (S)-3-(2-(dimethylamino)acetamido)-2-((9Z,12Z)-octadeca-9,12-dienamido)propanoate]", "values": [{"measurement": "t(½) (hr) human serum 37 C.", "setting": "[2]", "value": ">50", "unit": "h"}]}, {"smiles": "CCCCC/C=C\\C/C=C\\CCCCCCCCOC(=O)CC(CC(=O)OCCCCCCCC/C=C\\C/C=C\\CCCCC)NC(=O)CN1CCN(CCO)CC1", "note": "[Compound CA, di((9Z,12Z)-octadeca-9,12-dien-1-yl) 3-(2-(4-(2-hydroxyethyl)piperazin-1-yl)acetamido)pentanedioate]", "values": [{"measurement": "EC50", "setting": "GFP", "value": "< 50", "unit": "nM"}]}, {"smiles": "CCCCC/C=C\\C/C=C\\CCCCCCCCOC(=O)CC(CC(=O)OCCCCCCCC/C=C\\C/C=C\\CCCCC)NC(=O)SCCN(C)C", "note": "[Compound DD, di((9Z,12Z)-octadeca-9,12-dien-1-yl) 3-((((2-(dimethylamino)ethyl)thio)carbonyl)amino)pentanedioate]", "values": [{"measurement": "EE* (%) Encapsulation efficiency for siRNA", "setting": "[3]", "value": 92, "unit": "%"}, {"measurement": "Z (ave) nm", "setting": "[4]", "value": 137, "unit": "nm"}, {"measurement": "pKa", "setting": "[1]", "value": 5.1}, {"measurement": "t(½) (hr) human serum 37 C.", "setting": "[2]", "value": ">50", "unit": "h"}]}, {"smiles": "CCCCC/C=C\\C/C=C\\CCCCCCCCOC(=O)CC(CC(=O)OCCCCCCCC/C=C\\C/C=C\\CCCCC)NC(=O)OCCN(C)C", "note": "[Compound E4, di((9Z,12Z)-octadeca-9,12-dien-1-yl) 3-(((2-(dimethylamino)ethoxy)carbonyl)amino)pentanedioate]", "values": [{"measurement": "EE* (%) Encapsulation efficiency for siRNA", "setting": "[3]", "value": 94, "unit": "%"}, {"measurement": "Z (ave) nm", "setting": "[4]", "value": 131, "unit": "nm"}, {"measurement": "EC50", "setting": "GFP", "value": 2.7, "unit": "nM"}, {"measurement": "t(½) (hr) human serum 37 C.", "setting": "[2]", "value": ">50", "unit": "h"}]}, {"smiles": "CCCCC/C=C\\C/C=C\\CCCCCCCCOC(=O)[C@@H]1C[C@@H](NC(=O)CCN(C)C)CN1C(=O)CCCCCCC/C=C\\C/C=C\\CCCCC", "note": "[Compound E37, (9Z,12Z)-octadeca-9,12-dien-1-yl (2S,4R)-4-(3-(dimethylamino)propanamido)-1-((9Z,12Z)-octadeca-9,12-dienoyl)pyrrolidine-2-carboxylate]", "values": [{"measurement": "pKa", "setting": "[1]", "value": 9.2}]}, {"smiles": "CCCCC/C=C\\C/C=C\\CCCCCCCCOC(=O)[C@@H]1C[C@@H](NC(=O)CCCN(C)C)CN1C(=O)CCCCCCC/C=C\\C/C=C\\CCCCC", "note": "[Compound E38, (9Z,12Z)-octadeca-9,12-dien-1-yl (2S,4R)-4-(4-(dimethylamino)butanamido)-1-((9Z,12Z)-octadeca-9,12-dienoyl)pyrrolidine-2-carboxylate]", "values": [{"measurement": "t(½) (hr) human serum 37 C.", "setting": "[2]", "value": ">50", "unit": "h"}]}, {"smiles": "CCCCC/C=C\\C/C=C\\CCCCCCCCOC(=O)[C@@H]1C[C@@H](NC(=O)CCC[N+](C)(C)C)CN1C(=O)CCCCCCC/C=C\\C/C=C\\CCCCC", "note": "[Compound E39, N,N,N-trimethyl-4-(((3R,5S)-5-((((9Z,12Z)-octadeca-9,12-dien-1-yl)oxy)carbonyl)-1-((9Z,12Z)-octadeca-9,12-dienoyl)pyrrolidin-3-yl)amino)-4-oxobutan-1-aminium]", "values": [{"measurement": "t(½) (hr) human serum 37 C.", "setting": "[2]", "value": ">50", "unit": "h"}]}, {"smiles": "CCCCC/C=C\\C/C=C\\CCCCCCCC(=O)OCCN(CCCN(C)C)C(=O)CCCCCCC/C=C\\C/C=C\\CCCCC", "note": "[Compound F5, 2-((9Z,12Z)—N-(3-(dimethylamino)propyl)octadeca-9,12-dienamido)ethyl (9Z,12Z)-octadeca-9,12-dienoate]", "values": [{"measurement": "pKa", "setting": "[1]", "value": 9.4}, {"measurement": "EC50", "setting": "GFP", "value": 33, "unit": "nM"}]}, {"smiles": "CCCCC/C=C\\C/C=C\\CCCCCCCC(=O)OCCN(CCCCN(C)C)C(=O)CCCCCCC/C=C\\C/C=C\\CCCCC", "note": "[Compound F6, 2-((9Z,12Z)—N-(4-(dimethylamino)butyl)octadeca-9,12-dienamido)ethyl (9Z,12Z)-octadeca-9,12-dienoate]", "values": [{"measurement": "pKa", "setting": "[1]", "value": 9.3}]}]}
